Measured values as given in US6623981B2, “Detection of patients at risk for developing integrin antagonist/agonist mediated disease states” (Bristol-Myers Squibb Company, priority 1998, dated 2003).

Experiments:
[1] = test system: gel purified platelets; experiment: Distribution of DDABs from plasma to gel purified platelets, dose-response of antagonist, read by DDAB ELISA; type: cell-based, human; details: plasma of healthy donor with DDABs to Compound A
Procedure: Panel A: Citrate plasma was obtained from two patients (307, 330) and a chimpanzee (A264) presenting with thrombocytopenic episodes while treated with GPIIb/IIIa antagonists Compound A or Compound D, respectively. The resulting plasma was incubated (30 minutes, room temperature) with gel purified platelets in the absence (closed bars) or presence (open bars) of Compound A (307, 330), or Compound D (A264). Platelets were removed by centrifugation, and the resulting plasma was analyzed by a GPIIb/IIIa-specific DDAB ELISA. The ELISA determines the binding of antibodies to GPIIb/IIIa in the presence of Compound A (307, 330) or Compound D (A264). […] Panel B: Citrate plasma derived from chimpanzee A264 (open circles) or an apparently healthy donor (closed circles) containing DDABs to Compound A was incubated with gel purified platelets in the presence of the indicated dose-response of Compound D (A264) or Compound A (healthy donor) as in panel A. Platelet poor plasma was prepared and analyzed by the DDAB ELISA as in panel A. Results are expressed as percentage inhibition of DDABs in plasma in comparison to samples treated with platelets in the absence of GPIIb/IIIa antagonist.
For solution-phase absorption in the DDAB ELISA, gel filtered platelets were prepared. […] Platelet-containing fractions were manually collected and platelet concentration was determined using a Coulter Counter. […]

[2] = molecular target: T1, immobilized GPIIb/IIIa (Homo sapiens, UniProt P05106+P08514); experiment: GPIIb/IIIa DDAB ELISA: binding of plasma drug-dependent antibodies in presence versus absence of GPIIb/IIIa antagonist; details: for reactivity of the thrombocytopenic chimpanzee plasma in the DDAB ELISA / reactivity of the patient's plasma in the DDAB ELISA: in words; for ratio mOD/minute in the presence versus absence of the respective compound: antagonist 100 nM
T1 construct: GPIIb/IIIa was either obtained from commercial sources (Enzyme Research Laboratories) or purified as outlined below; Outdated platelet concentrates; tissue Enzyme Research Laboratories (alternative source; no catalogue number given); host or cells: outdated platelet concentrates (Interstate Blood Bank)
Procedure: (§1) In the ELISA Type-2 procedure, Costar Enzyme Immunoassay/Radioimmunoassay [EIA/RIA] 96 well flat bottom plates (medium binding [#3591]) were coated (4° C., 16 hours) with 250 ng of GPIIb/IIIa in phosphate buffered saline (PBS) containing 1 mM CaCl2 and 0.5 mM MgCl2 (PBS/Ca/Mg) in the presence or absence of the indicated GPIIb/IIIa antagonist (100 nM). After three washing steps (PBS/Ca/Mg containing 0.05% v/v Tween 20), plasma was diluted 1:5 in PBS/Ca/Mg containing 0.05% Tween 20 and added to the coated wells in the absence or presence of the indicated GPIIb/IIIa antagonist (100 nM) for 1 hour at room temperature. The wells were washed (PBS/Ca/Mg containing 0.05% v/v Tween 20) and incubated with peroxidase-labeled goat anti-human IgG (y) (Kirkegaard & Perry) for 1 hour at room temperature. The wells were washed (PBS/Ca/Mg containing 0.05% v/v Tween 20) and developed with o-phenyleninediamine [OPD] (0.4 mg/mL in phosphate citrate buffer containing sodium perborate [Sigma]). The change of absorbance was determined kinetically for 15 minutes at […] using a standard ELISA reader. Results are expressed as either delta OD [change in optical density] (Vmax plus compound)−(Vmax minus compound), or the ratio (Vmax plus compound/Vmax minus compound).
In the ELISA Type-1 procedure, after coating with GPIIb/IIIa, the plates were blocked with 1% goat serum (VWR Scientific) and 0.1% casein (Sigma) in PBS/Ca/Mg containing 0.05% Tween 20 for 30 minutes at room temperature, followed by the addition of plasma (diluted in PBS/Ca/Mg containing 0.05% Tween 20, 1% v/v goat serum, 0.1% casein) for 1 hour at room temperature. The secondary antibody was diluted 1:10,000 in PBS/Ca/Mg containing 0.05% Tween 20 and 0.1% casein, and added for 1 hour at room temperature. The bound peroxidase-labeled IgG was detected with 3,3′,5,5′-tetramethylbenzidine (TMB, substrate kit; Pierce) and change in absorbance was determined for 5 minutes at […]. In addition, in the ELISA Type-1 procedure, the respective GPIIb/IIIa antagonist (100 nM) was present in the appropriate wells throughout all incubation and washing steps. The ELISA Type-1 procedure with optimized blocking conditions combined with further purification of the GPIIb/IIIa reduced the background, resulting in increased signal to noise ratio. The immunoglobulin class of DDABs was determined using peroxidase-labeled murine monoclonal antibodies to human Ig (Zymed) as the detection step in the modified ELISA protocol. For these experiments, normal goat serum was replaced with normal murine serum (Zymed).
The ability of DDABs present in plasma from a patient and a chimpanzee to bind to immobilized GPIIb/IIIa in the presence of various GPIIb/IIIa antagonists were compared. Results are expressed as the ratio mOD/minute in the presence versus absence of the respective compound.
(§2) The reactivity of the patient's plasma with Compound A and metabolites thereof was compared. Metabolites of Compound A were isolated from rat urine and tested for their ability to prevent platelet aggregation in platelet-rich plasma. The ability of DDABs present in plasma from a patient to bind to GPIIb/IIIa in the presence of the indicated metabolites of Compound A was tested using the GPIIb/IIIa DDAB ELISA. All three metabolites of Compound A were active in preventing ADP-induced platelet aggregation using platelet rich plasma. While the metabolites only differ from the parental compound (Compound A) with respect to hydroxylation of a single carbon atom, the reactivity of the patient's DDABs with metabolite M-3 was only 50% and that with metabolite M-2 was undetectable.

[3] = test system: platelet aggregation in platelet-rich plasma; experiment: ADP-induced platelet aggregation in platelet-rich plasma (PRP); type: cell-based
Procedure: as §2

[4] = molecular target: T2, GPIIb/IIIa (Homo sapiens, UniProt P05106+P08514); experiment: DDAB ELISA Type-2 screen of blood donor plasma (general population); type: binding; details: American Red Cross blood donors
T2 construct: GPIIb/IIIa was either obtained from commercial sources (Enzyme Research Laboratories) or purified as outlined below; Outdated platelet concentrates; tissue Enzyme Research Laboratories (alternative source; no catalogue number given); host or cells: outdated platelet concentrates (Interstate Blood Bank)
Procedure: as §1
The occurrence of DDABs in the general population was tested. Plasma samples from blood donors were obtained from the American Red Cross and tested for reactivity with Compound A and Compound B in the DDAB ELISA Type-2 procedure. While the majority of the blood donors were negative in the DDAB ELISA, 2.2 and 14.6% donors presented a reactivity (delta>3) with Compound A and Compound B, respectively. A reactivity with a delta >5 was only evident in 1.3% and 7.1% of the blood donors with Compound A and Compound B, respectively. Thus, the prevalence and titer of pre-existing DDABs is relatively low in the general population and varies with the respective GPIIb/IIIa antagonist employed.

[5] = Blood concentration in dosed patients; type: in vivo
[6] = plasma #330 (thrombocytopenic patient treated with Compound A)
[7] = plasma A264 (thrombocytopenic chimpanzee dosed with Compound D)

T2 sequence (P08514 32-887 limits assumed): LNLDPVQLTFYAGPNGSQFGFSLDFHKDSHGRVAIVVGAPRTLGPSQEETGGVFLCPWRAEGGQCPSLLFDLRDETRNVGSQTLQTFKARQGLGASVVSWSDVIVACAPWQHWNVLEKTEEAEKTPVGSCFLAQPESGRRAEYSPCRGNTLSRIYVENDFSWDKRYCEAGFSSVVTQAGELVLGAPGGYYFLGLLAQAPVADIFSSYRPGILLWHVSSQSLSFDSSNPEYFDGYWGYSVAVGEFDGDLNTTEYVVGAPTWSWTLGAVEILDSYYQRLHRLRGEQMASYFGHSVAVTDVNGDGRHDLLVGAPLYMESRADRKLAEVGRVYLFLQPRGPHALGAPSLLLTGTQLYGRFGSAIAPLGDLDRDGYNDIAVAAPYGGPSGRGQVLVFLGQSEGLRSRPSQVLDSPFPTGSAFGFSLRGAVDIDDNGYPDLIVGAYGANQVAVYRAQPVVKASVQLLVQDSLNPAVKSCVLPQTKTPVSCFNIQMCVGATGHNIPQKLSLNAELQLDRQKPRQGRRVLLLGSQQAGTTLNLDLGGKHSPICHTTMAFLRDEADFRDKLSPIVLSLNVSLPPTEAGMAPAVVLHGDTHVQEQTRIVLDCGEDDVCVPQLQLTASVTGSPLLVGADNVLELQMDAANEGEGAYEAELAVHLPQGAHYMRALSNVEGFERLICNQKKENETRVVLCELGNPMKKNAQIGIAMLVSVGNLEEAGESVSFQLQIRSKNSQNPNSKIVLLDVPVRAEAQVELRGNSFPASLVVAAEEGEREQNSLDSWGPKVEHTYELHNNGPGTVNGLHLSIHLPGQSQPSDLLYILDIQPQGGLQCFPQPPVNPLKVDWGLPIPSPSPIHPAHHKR
T2 sequence (P08514 891-1039 limits assumed): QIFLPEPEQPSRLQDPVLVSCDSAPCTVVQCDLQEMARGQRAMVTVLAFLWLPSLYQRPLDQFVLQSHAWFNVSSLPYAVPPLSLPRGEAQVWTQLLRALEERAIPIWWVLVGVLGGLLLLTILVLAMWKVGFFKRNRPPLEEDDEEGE
T2 sequence (P05106 27-788): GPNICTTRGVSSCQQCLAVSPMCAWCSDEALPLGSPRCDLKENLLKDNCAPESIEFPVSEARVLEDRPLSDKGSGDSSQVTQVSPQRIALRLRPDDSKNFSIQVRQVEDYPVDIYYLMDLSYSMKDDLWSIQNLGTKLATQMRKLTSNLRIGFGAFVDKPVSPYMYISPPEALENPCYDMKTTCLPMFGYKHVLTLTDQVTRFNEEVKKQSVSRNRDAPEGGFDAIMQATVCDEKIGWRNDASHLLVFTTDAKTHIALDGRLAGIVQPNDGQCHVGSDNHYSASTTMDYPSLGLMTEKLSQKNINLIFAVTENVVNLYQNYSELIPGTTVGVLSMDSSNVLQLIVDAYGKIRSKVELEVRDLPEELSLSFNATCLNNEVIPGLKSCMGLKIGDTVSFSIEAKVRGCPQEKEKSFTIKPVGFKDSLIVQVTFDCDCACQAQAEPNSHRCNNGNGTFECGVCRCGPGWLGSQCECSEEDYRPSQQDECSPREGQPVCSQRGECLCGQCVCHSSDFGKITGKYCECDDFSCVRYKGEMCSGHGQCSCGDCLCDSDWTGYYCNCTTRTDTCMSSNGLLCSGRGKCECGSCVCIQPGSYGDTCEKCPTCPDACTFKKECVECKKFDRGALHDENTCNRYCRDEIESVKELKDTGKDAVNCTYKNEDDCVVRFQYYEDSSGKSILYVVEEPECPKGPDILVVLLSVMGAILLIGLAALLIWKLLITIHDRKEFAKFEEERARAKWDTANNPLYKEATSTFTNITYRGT
T1 sequence (P08514 32-887 limits assumed): as the sequence (P08514 32-887 limits assumed) above
T1 sequence (P08514 891-1039 limits assumed): as the sequence (P08514 891-1039 limits assumed) above
T1 sequence (P05106 27-788): as the sequence (P05106 27-788) above

Row | Compound | IC50 ([1]; estimated, read-out: IC50 (inhibition of DDABs in plasma by distribution to platelets)) | concentration required to completely shift the DDABs to the platelet surface ([1]; 30 minutes, room temperature) | ELISA ratio ([2]; DDABs in plasma from a patient, binding to GPIIb/IIIa in presence of Compound A or its metabolites) | reactivity of the thrombocytopenic chimpanzee plasma in the DDAB ELISA [2] | reactivity of the patient's plasma in the DDAB ELISA [2] | ratio mOD/minute in the presence versus absence of the respective compound [2, 6] | ratio mOD/minute in the presence versus absence of the respective compound [2, 7] | IC50 [3] | blood donors with a reactivity with a delta >5 [4] | donors presenting a reactivity (delta>3) [4] | Peak blood concentrations [5]
1 | CCCCOC(=O)N[C@@H](CNC(=O)C[C@H]1CC(c2ccc(C(=N)N)cc2)=NO1)C(=O)O [Compound A, 2(S)-[(n-butoxycarbonyl)amino]-3-[[[3-[4-(aminoiminomethyl)phenyl]isoxazolin-5 (R)-yl]methylcarbonyl]amino]propionic acid] | ~0.3 nM | Less than 1 nM | 13.5 | no reactivity | reacts strongly | 9.2 | 1.0 | 32 nM | 1.3% | 2.2% | up to 50 nM
2 | Cc1ccc(S(=O)(=O)N[C@@H](CNC(=O)c2cc3n(n2)CCCN(CCC2CCNCC2)C3=O)C(=O)O)cc1 [Compound C, 2(S)-((4-methylphenylsulfonyl)amino]-3-[[[5,6,7,8-tetrahydro-4-oxo-5-[2-(piperidin-4-yl)ethyl]-4H-pyrazolo-[1,5-a][1,4]diazepin-2-yl]carbonyl]amino]propionic acid] |  |  |  | less | no reactivity | 1.0 | 5.4 |  |  |  | 
3 | Cc1noc(C)c1S(=O)(=O)N[C@@H](CNC(=O)C[C@H]1CC(c2ccc(C(=N)N)cc2)=NO1)C(=O)O [Compound B] |  |  |  | no reactivity | reacts strongly | 11.2 | 0.8 |  | 7.1% | 14.6% | 
4 | O=C(NC[C@H](NS(=O)(=O)c1cccnc1)C(=O)O)c1cc2cc(CCC3CCNCC3)sc2s1 [Compound D, 5-[2-(piperdin-4-yl)ethyl]thieno[2,3-b]thiophene-2-N-(3-2(S)-(3-pyridinylsulfonylamino)propionic acid]carboxamide] |  |  |  | strongly reactive | reacts strongly | 4.9 | 14.4 |  |  |  | 
